One compound from US20230322805A1, “NOVEL PYRIMIDODIAZEPINE DERIVATIVES OR USES THEREOF” (SPARK BIOPHARMA, INC., priority 2020, published 2023) can be followed below.

Molecules are shown by their SMILES. Read-outs that look alike come from different tables or passages of the source.

Series [1] is described as follows: Pharmacokinetics test in male ICR mice. It counts as in vivo. Particulars: CD-1 (ICR), mouse, plasma, 5 mg/kg; for half-life: male. On the procedure: After intravenous or intraperitoneal administration (5 mg/kg, 3.3 mL/kg) of the compound (SB1617, 5% DMSO/[…]) according to the present invention to CD-1 (ICR) male mice (7 weeks old, KOATECH, Korea), blood was collected at designated time points from the orbital venous plexus. The concentration of the compound (SB1617) according to the present invention was examined from the plasma samples using an LC-MS/MS analyzer (Agilent 1200, 4000 Qtrap). Pharmacokinetic parameters were obtained from plasma concentration-time plots using WinNonlin software (Pharsight, USA).
6-1. In order to evaluate the suitability of the compound (SB1617) according to this invention in vivo, pharmacokinetic properties and blood-brain barrier penetration properties were identified using male ICR mice according to the methods described in Examples 1-15 and 1-16.

The test system of a further series is Htt-Q74. The series can be described thus: Level of aggregation-prone mutant protein after treatment. Particulars: SB1617 treatment. The format is cell-based.

By AUC(0-inf) is commonly meant the area under the concentration-time curve extrapolated to infinity. High values mean high exposure, low ones low exposure. A word on the AUC(0-t): it is exposure summed from dosing to a finite time, without extrapolation to infinity. A higher AUC(0-t) goes with more exposure. For orientation: Cmax means the peak of the concentration-time curve. The Tmax is the time at which the peak concentration occurs. The term clearance denotes the volume of plasma or blood freed of the substance per unit of time. Higher therefore signals a high capacity for elimination. In the case of `CN(Cc1ccc(Cl)cc1)c1ncnc2c1[C@@H]1OC[C@H](CN2)N1S(=O)(=O)c1ccc([N+](=O)[O-])cc1` [Compound 117], in series [1] (ip, I.P.), the AUC(0-inf) worked out at 5650 ± 3320 ng·h/mL, the AUC(0-t) came to 6070 ± 2810 ng·h/mL, the Cmax was determined as 857 ± 339 ng/mL and the time to peak (Tmax) was 1.67 ± 2.02 h. In series [1] (iv, I.V.), this compound showed an AUC(0-inf) of 4490 ± 150 ng·h/mL, an AUC(0-t) of 4190 ± 112 ng·h/mL and a clearance of 18.7 mL/min/kg. The Vd in series [1] (iv, I.V., read-out: Vss) was 6.27 ± 0.928 L/kg. Further, the half-life in series [1] (ip, I.P., read-out: T1/2 (converted)) was 6.57 ± 0.0563 h. Moreover, in series [1] (ip, intraperitoneal injection, read-out: half-life (converted)), the half-life was approximately 6.6 h. Moreover, the half-life in series [1] (iv, I.V., read-out: T1/2 (converted)) was 5.51 ± 1.86 h. Also, the “mutation level of Htt-Q74” value with Htt-Q74 was “downregulated”.
